Assay results as given in paper PMC12845261, “Design, Synthesis, and Biological Evaluation of N-Acyl-Hydrazone-Linked Quinazolinone Derivatives with Antioxidant, Antimicrobial, and Anticancer Potential” (Pharmaceuticals, 2025).
In brackets after ≈: the same amount, converted by molar mass. Several values for one entry are separate records, joined by “and”; a condition that tells them apart may be missing. Equal values may be shown once.

What was measured:
[1] = Total antioxidant capacity (TAC), DPPH method; settings: 30 min, 517 nm, compound stock 1 mg/mL in methanol, reference ascorbic acid TAC = 100%
Description: The total antioxidant capacity (TAC) was evaluated using diphenyl-1-picrylhydrazyl free radical (DPPH) method. The TAC value was determined in relation to the antioxidant capacity of the reference (ascorbic acid, TAC = 100%). […] The maximum value was recorded for 1c (~45%), followed by 1f and 1a (~43%), while the minimum for 1e (~19%).
In this study, the TAC values were obtained using the most-known DPPH method, in which the intense violet colour of the free radical solution is decreasing. Stock solutions of compounds 1a–1f and 2 were prepared in absolute methanol at a concentration of 1 mg/mL. A stock solution of 2,2-diphenyl-1-picrylhydrazyl free radical was obtained in the same solvent, at a concentration of 2 × 10^−4 M. To 1.8 mL of DPPH solution was added 0.2 mL of each solution of the compounds 1a–1f and 2 and the mixture was left in the dark for 30 min, followed by measurements of the absorbance at 517 nm. The following equation was used to calculate TAC: TAC%=Abs0 min−Abs30 min/Abs0min·100 where Abs0 min refers to the initial absorbance of the DPPH free radical solution, and Abs 30 min refers to the absorbance of the solution of DPPH and the added compound after 30 min. Ascorbic acid was used as a reference.

[2] = system: C. albicans ATCC 10231; assay: Quantitative antimicrobial activity, serial binary microdilution (MIC, IC50); assay type: cell-based; settings: Candida albicans, ATCC10231, 24 h, 37 °C, DMSO control 1.25
Description: (§1) For the evaluation of antimicrobial activity, the following reference strains were used: S. aureus ATCC 25923, E. faecalis ATCC 29212, E. coli ATCC 25922, P. aeruginosa ATCC 27853 and C. albicans ATCC 10231.
(§2) Quantitative analysis was performed using the method of serial binary microdilutions in liquid medium (Tryptone Soy Broth for bacteria and Sabouraud Broth for yeasts) in plates with 96 wells. Stock solutions of 10 mg/mL were made in DMSO, and the range of concentrations tested for each compound was 5000–0.16 μg/mL. Simultaneously, the DMSO control was carried out under the same working conditions. Each well was inoculated with 10 μL of microbial suspension, adjusted to a density of 1.5 × 10^8 CFU/mL prepared from 18 to 24 h cultures. After 24 h of incubation at 37 °C, microbial growth and multiplication were evaluated both macroscopically and spectrophotometrically at 620 nm to establish the MIC values. […] Blanks were made for each sample concentration, and the formula was applied: Microbial viability(%)=Asample−Ablank/Astrain control−Asterility control·100

[3] = system: S. aureus ATCC 25923; assay: as above; assay type: cell-based; settings: 24 h; for MIC (mg/mL) / MIC: S. aureus ATCC 25923, 37 °C, DMSO control 2.5
Description: as §1, §2

[4] = system: E. faecalis ATCC 29212; assay: as above; assay type: cell-based; settings: 37 °C, DMSO control 2.5; for MIC (mg/mL): 24 h; for MIC: Enterococcus faecalis, ATCC29212, 24 h
Description: as §1, §2

[5] = system: E. coli ATCC 25922; assay: as above; assay type: cell-based; settings: for MIC: Escherichia coli, ATCC25922, E. coli ATCC 25922, 24 h, 37 °C, DMSO control 1.25
Description: as §1, §2

[6] = system: P. aeruginosa ATCC 27853; assay: as above; assay type: cell-based; settings: Pseudomonas aeruginosa, ATCC27853, 24 h, 37 °C, DMSO control 1.25
Description: as §1, §2

[7] = Qualitative solubility in solvents; assay type: physicochemical
Description: The 2–5 mL reaction vials were loaded with a magnetic stirrer, 1 mmol of each reactant, acetohydrazide 2 and benzaldehydes, 4–4.5 mL of anhydrous ethanol and 2 drops of glacial acetic acid. Reaction conditions included 5 min of pre-stirring, followed by 40 min of irradiation at 100 °C, with the absorbance level set to “high”. The vials were left overnight in a refrigerator. The precipitates formed were filtered under vacuum, washed with cold ethanol and dried at room temperature. Thin-layer chromatography was performed to analyze and monitor the reaction. The compounds were confirmed by spectroscopic methods (FT-IR, ^1H-NMR and ^13C-NMR spectroscopy and mass spectrometry) and characterized by melting points, solubility and retention factors (Rf).

[8] = system: E. coli ATCC 25922; assay: Microbicidal activity (MMC); assay type: cell-based; settings: DMSO control 5
Description: For the evaluation of antimicrobial activity, the following reference strains were used: S. aureus ATCC 25923, E. faecalis ATCC 29212, E. coli ATCC 25922, P. aeruginosa ATCC 27853 and C. albicans ATCC 10231. To determine the MMCs, 5 μL of culture was taken from each well and distributed on solid medium. The plates were incubated for 20–24 h at 37 °C. The lowest concentration at which no microbial growth was observed was considered MMC.

[9] = Staphylococcus aureus, ATCC25923

Structure (SMILES)	TAC (%) [1]	MIC [2] [mg/L]	MIC (mg/mL) [3]	MIC [3, 9] [mg/L]	MIC (mg/mL) [4]	MIC [4] [mg/L]	MIC [5] [mg/L]	MIC [6] [mg/L]	Solubility ([7]; DMF)	Solubility ([7]; DMSO)	Solubility ([7]; acetone)	Solubility ([7]; methanol)	Solubility ([7]; water)	IC50 ([3]; Staphylococcus aureus, ATCC25923, S. aureus, four-parameter fit of microbial viability) [mg/L]	Solubility ([7]; 2-propanol)	MMC [8] [mg/mL]	IC50 (antimicrobial activity) compared with solvent control ([5]; E. coli, versus DMSO, p < 0.05)
Cc1nc2ccccc2c(=O)n1CC(=O)N/N=C/c1cc(Br)ccc1O [Compound 1a, N′-[(E)-(5-bromo-2-hydroxyphenyl)methylidene]-2-(2-methyl-4-oxoquinazolin-3(4H)-yl)acetohydrazide]	42.7%	625 (≈ 1.51 mM)	specifically active	1250 (≈ 3.01 mM)	specifically active	1250 (≈ 3.01 mM)	1250 (≈ 3.01 mM)	1250 (≈ 3.01 mM)	soluble	soluble	soluble	slightly soluble	insoluble				
Cc1nc2ccccc2c(=O)n1CC(=O)N/N=C/c1cc(Br)cc(Br)c1O [Compound 1b, N′-[(E)-(3,5-bromo-2-hydroxyphenyl)methylidene]-2-(2-methyl-4-oxoquinazolin-3(4H)-yl)acetohydrazide]	38.9%	625 (≈ 1.26 mM)	specifically active	312 (≈ 0.632 mM)		> 5000	1250 (≈ 2.53 mM)	5000 (≈ 10.1 mM)	soluble	soluble	soluble	slightly soluble	insoluble	85.7 (≈ 0.173 mM)	slightly soluble		
COc1cccc(/C=N/NC(=O)Cn2c(C)nc3ccccc3c2=O)c1O [Compound 1c, N′-[(E)-(2-hydroxy-3-methoxyphenyl)methylidene]-2-(2-methyl-4-oxoquinazolin-3(4H)-yl)acetohydrazide]	45.1%	2500 (≈ 6.82 mM)		2500 (≈ 6.82 mM)		2500 (≈ 6.82 mM)	1250 (≈ 3.41 mM)	1250 (≈ 3.41 mM)	soluble	soluble	soluble	slightly soluble	insoluble			5	significantly lower IC50 values than the solvent control
COc1ccc(/C=N/NC(=O)Cn2c(C)nc3ccccc3c2=O)c(O)c1 [Compound 1d, N′-[(E)-(2-hydroxy-4-methoxyphenyl)methylidene]-2-(2-methyl-4-oxoquinazolin-3(4H)-yl)acetohydrazide]	19.3% and 20.5%	5000 (≈ 13.6 mM)		2500 (≈ 6.82 mM)		5000 (≈ 13.6 mM)	1250 (≈ 3.41 mM)	1250 (≈ 3.41 mM)	soluble	soluble	soluble	slightly soluble	insoluble			5	
COc1ccc(O)c(/C=N/NC(=O)Cn2c(C)nc3ccccc3c2=O)c1 [Compound 1e, N′-[(E)-(2-hydroxy-5-methoxyphenyl)methylidene]-2-(2-methyl-4-oxoquinazolin-3(4H)-yl)acetohydrazide]	19.3%	1250 (≈ 3.41 mM)	specifically active	1250 (≈ 3.41 mM)		5000 (≈ 13.6 mM)	5000 (≈ 13.6 mM)	5000 (≈ 13.6 mM)	soluble	soluble		slightly soluble	insoluble			5	
COc1cc(/C=N/NC(=O)Cn2c(C)nc3ccccc3c2=O)cc([N+](=O)[O-])c1O [Compound 1f, N′-[(E)-(4-hydroxy-3-methoxy-5-nitrophenyl)methylidene]-2-(2-methyl-4-oxoquinazolin-3(4H)-yl)acetohydrazide]	43.4%	1250 (≈ 3.04 mM)		2500 (≈ 6.08 mM)	specifically active	1250 (≈ 3.04 mM)	1250 (≈ 3.04 mM)	1250 (≈ 3.04 mM)	soluble	soluble	soluble	slightly soluble	insoluble				
Cc1nc2ccccc2c(=O)n1CC(=O)NN [Compound 2, 2-(2-methyl-4-oxoquinazolin-3(4H)-yl)acetohydrazide]	19.7%	1250 (≈ 5.38 mM)		2500 (≈ 10.8 mM)		2500 (≈ 10.8 mM)	1250 (≈ 5.38 mM)	1250 (≈ 5.38 mM)									
